Key:
[1] = system: murine CD8+ T cells stimulated with peptide-pulsed T2 cells; test: IFN-γ ELISPOT after peptide vaccination of HLA-A*0201-transgenic mice; format: in vivo; conditions: mice immunized with mixture of 100 μg of each peptide in PBS:Montanide ISA 51, 3 weekly vaccinations; CD8+ T cells stimulated with the same epitope on T2 cells; FIG. 1
From the text: To further validate the identified HER-3-derived peptide epitopes (SEQ ID NO: 1 and SEQ ID NO: 3), we vaccinated HLA-A*0201-transgenic mice with these peptides. Female CB6F1-Tg(HLA-A*0201/H2-K^b) A*0201 mice were purchased from Charles River Laboratories (Raleigh, N.C.). These animals carry a transgene consisting of fragments of the human HLA-A*0201 gene and mouse H2-K^b gene which encodes a chimeric class I molecule consisting of the human HLA-A2.1 leader, α1 and α2 domains ligated to the murine α3, transmembrane and cytoplasmic H2-K^b domain Mice were maintained in a specific pathogen-free environment. All mice were used at 8 to 12 weeks of age. Animals were housed in a specific pathogen-free environment at the animal facility of the DUKE University Medical Center. All mice used in this study were cared for in accordance with the Guide for Humane care and use of Laboratory Animals published by the National Institutes of Health. All the animal experimental protocols were approved by the Duke University Medical Center Institutional Animal Care and Use Committee.
Mice were immunized with a mixture of 100 μg of each peptide emulsified in PBS:Montanide ISA 51 (1:1) (SEPPIC, France). […]
ELISPOT assays were performed without re-stimulation of cells. […] Spots of the dried plate were counted using an ImmunoScan ELISPOT reader (C.T.L., Cellular Technology Ltd.).

[2] = system: HLA-A*0201-positive- and HER3-positive MCF-7 cells; test: Human CTL (51Cr release) assay on MCF-7 target cells; format: cell-based; conditions: effector to target ratio 25 to 1; for killing of MCF-7 cells by peptide-induced CTL: CTL induced with peptide-loaded (10 μM) human DCs, unloaded MCF-7 targets, FIGS. 2A-2B
Procedure: (§1) Immature human DCs (Dendritic cells) were loaded for 2 hours at 10 μM with peptides, washed and then co-cultured with untouched autologous T cells (isolated via magnetic bead-based separation) at a DC to T-cell ratio of 1:20 in complete RPMI media supplemented with 12.5 μg/mL pIC, (polyinosinic-polycytidylic acid, Sigma) and 1.0 μg/mL recombinant CD40L plus 1.0 μg/mL Enhancer (Alexis Biochemicals). 20 U/ml of recombinant human Interleukin-2 (IL-2) were added after 3 days and every other day thereafter. Cells were re-stimulated twice after 7 days (DC to T cell ratio of 1:10) and analyzed for cytolytic activity 10 days after the last re-stimulation.
(§2) 2×10^6 target cells were harvested, washed, counted, and labeled with 100 μCi of Na2^51CrO4 (Amersham) in 0.5 ml complete RPMI at 37° C. for 1.5 h. Exogenous loading of cells with 10 μM synthetic peptide was performed simultaneously with labeling reactions. CTLs (untouched CD8^+ T cells isolated via magnetic-bead-based techniques (Miltenyi Biotec)) were washed, counted, and diluted to the desired density in complete RPMI 1640 and plated in duplicate wells in a round-bottomed, 96-well plate. Target cells were washed three times, resuspended in complete RPMI and incubated at 37° C. and 5% CO2. After 1 h, cells were washed one more time, diluted to 10^4 cells/ml and co-incubated with CTLs at indicated effector to target ratio of 25 to 1. The plates were spun briefly at 800×g and incubated for 4-5 h at 37° C. Supernatants were harvested and counted in a gamma counter. Duplicate wells were averaged, and the percentage of specific lysis was calculated as: […]

[3] = system: HLA-A*0201-positive, but HER3-negative LNCaP cells; test: Human CTL (51Cr release) assay on LNCaP target cells; format: cell-based; conditions: effector to target ratio 25 to 1, FIG. 2B
Procedure: as §1
as §2, with “After 1 h, cells were washed one more time, diluted to 10^4 cells/ml and co-incubated with CTLs at indicated effector to target ratio of 25 to 1. The plates were spun briefly at 800×g and incubated for 4-5 h at 37° C.” left out

Sequence	induction of epitope-specific CD8+ T cells producing IFN-γ (ELISPOT) [1]	killing of MCF-7 cells by peptide-induced CTL [2]	killing of epitope-loaded MCF-7 cells by peptide-induced CTL ([2]; target cells loaded with 10 μM HER3943-954, FIG. 2B)	killing of epitope-loaded LNCaP cells by peptide-specific CTL ([3]; LNCaP targets loaded with 10 μM HER3943-954)	killing of LNCaP cells by peptide-specific CTL ([3]; unloaded HER3-negative LNCaP targets)
LAEVPDLLE (Synthetic HER3 Antigen 1) [HER3917-925]	failed to induce CD8^+ T cells that produced IFN-γ	failed to induce HERS-specific CTLs	–	–	–
VMVKCWMIDENI (Synthetic HER3 Antigen 3) [HER3943-954]	induced epitope-specific CD8^+ T cells	killed MCF-7 cells efficiently	cytolytic activity could further be enhanced	Killing	did not kill
